Experimental data as given in the supplement of paper PMC8882468.

Columns and labels:
Test in all cases: CTG-3D luminescence at 96 h relative to day-0 seeding control (ratio to day 0); higher = more growth / less cytotoxicity; PDxO 3D drug screen (set 2), 96 h, CTG-3D normalised to day-0 seeding control.
HCI-005.E2 = system: HCI-005.E2 (organoid from a breast cancer xenograft with a HER2-positive history)
HCI-017.E2 = system: HCI-017.E2 (organoid from an ER-positive breast cancer xenograft)
HCI-019 = system: HCI-019 (organoid from a triple-negative breast cancer xenograft)
HCI-001 = system: HCI-001 (organoid from a triple-negative breast cancer xenograft)
HCI-015 = system: HCI-015 (organoid from a triple-negative breast cancer xenograft)
HCI-010 = system: HCI-010 (organoid from a breast cancer xenograft)

Nc1cc(C(F)(F)F)c(-c2cc(N3CCOCC3)nc(N3CCOCC3)n2)cn1 [buparlisib]
CTG-3D luminescence at 96 h
Settings	12.5 pM	0.00025 µM	0.005 µM	0.1 µM	1 µM	10 µM	100 µM	625 fM
HCI-005.E2	1.84	2.58	2.64	3.03	1.45	0.703	0.594	2.11
HCI-017.E2	1.864	2.59	2.12	2.15	0.869	0.263	0.208	2.26

CTG-3D luminescence at 96 h
Settings	12.5 pM	0.00025 µM	0.005 µM	0.1 µM	1 µM	10 µM	100 µM	625 fM
HCI-001, days in culture: 365	3.09	2.29	2.5	3.19	1.82	0.687	0.646	1.89
HCI-001, days in culture: 397	1.95	2.38	2.48	2.22	1.46	0.715	0.507	1.44
HCI-001, days in culture: 401	1.47	1.87	1.41	1.86	1.11	0.572	0.512	1.76
HCI-010, days in culture: 79	1.69	1.83	1.84	1.83	1.02	0.456	0.0891	2
HCI-010, days in culture: 86	2	2.29	2.49	2.33	1.36	0.525	0.146	2.19
HCI-010, days in culture: 102	1.08	1.24	1.36	1.38	0.738	0.309	0.0336	0.982
HCI-010, days in culture: 164	1.62	1.52	1.57	1.65	1.04	0.556	0.11	1.37
HCI-015, days in culture: 333	2.29	1.36	1.57	1.43	0.645	0.204	0.269	1.16
HCI-015, days in culture: 355	1.31	3.75	1.42	1.76	0.946	0.466	0.46	2.06
HCI-015, days in culture: 369	1.92	1.66	2.47	1.92	0.94	0.378	0.599	1.66
HCI-017.E2, days in culture: 85	2.1	1.79	1.67	1.9	0.668	0.194	0.256	2.53
HCI-019, days in culture: 173	2.34	1.59	2.11	1.58	1.45	0.425	0.353	1.61
HCI-019, days in culture: 194	1.92	1.72	2.05	2.27	0.78	0.454	0.358	3.95
HCI-019, days in culture: 215	1.75	1.27	1.46	1.85	0.763	0.382	0.188	1.2

CC(=O)O[C@@]12CO[C@@H]1C[C@H](O)[C@@]1(C)C(=O)[C@H](O)C3=C(C)[C@@H](OC(=O)[C@H](O)[C@@H](NC(=O)OC(C)(C)C)c4ccccc4)C[C@@](O)([C@@H](OC(=O)c4ccccc4)[C@H]21)C3(C)C [docetaxel]
CTG-3D luminescence at 96 h
Settings	12.5 pM	0.00025 µM	0.005 µM	0.1 µM	1 µM	10 µM	100 µM	625 fM
HCI-005.E2	1.75	1.98	2.07	2.26	2.22	1.75	0.813	2.5
HCI-017.E2	1.34	1.47	1.2	1.36	1.14	0.78	0.13	1.38

CTG-3D luminescence at 96 h
Settings	12.5 pM	0.00025 µM	0.005 µM	0.1 µM	1 µM	10 µM	100 µM	625 fM
HCI-001, days in culture: 365	1.99	1.78	1.68	1.79	1.49	1.18	1.1	1.34
HCI-001, days in culture: 397	1.11	1.7	1.28	1.67	1.72	1.72	0.311	0.889
HCI-001, days in culture: 401	1	1.57	0.829	1.35	1.02	1.19	0.514	1.16
HCI-010, days in culture: 79	1.26	1.41	1.14	0.967	0.815	0.987	0.000117	1.74
HCI-010, days in culture: 86	2.16	2.35	2.01	0.907	0.734	0.847	0.00279	2.24
HCI-010, days in culture: 102	1.2	0.987	0.747	0.491	0.519	0.375	0.00091	1.07
HCI-010, days in culture: 164	1.68	1.45	1.1	0.611	0.719	0.646	0.00438	1.43
HCI-015, days in culture: 333	1.1	0.869	0.428	0.469	0.526	0.304	0.0462	0.76
HCI-015, days in culture: 355	1.2	0.928	0.736	0.737	0.975	0.684	0.105	0.757
HCI-015, days in culture: 369	1.06	0.83	0.967	0.721	0.553	0.702	0.176	1.69
HCI-017.E2, days in culture: 85	2.47	1.92	0.986	0.975	0.797	0.598	0.154	2.7
HCI-019, days in culture: 173	1.24	0.84	0.655	1.38	0.99	0.699	0.368	0.768
HCI-019, days in culture: 194	1.66	2.03	0.858	0.59	0.552	0.764	0.27	3.06
HCI-019, days in culture: 215	1.52	0.972	0.281	0.399	0.342	0.484	0.0546	1.59
